Experimental data published in patent publication US8592174B2, “Peptidase substrates” (bioMérieux, S.A., priority 2009, dated 2013).

Columns and labels:
Assay type in all cases: cell-based
[1] = system: Acinetobacter baumannii 0604029; experiment: Peptidase detection on Columbia medium (Example 4); conditions: 75 mg/l, 48 h 37° C.; for Growth: control C: ++
Excerpt: (§1) After homogenization, the media were distributed into 120-mm-squared dishes. A medium serving as a growth control (Columbia) and denoted C was also poured.

[2] = system: Bacillus subtilis 0204038; experiment: Peptidase detection on Columbia medium (Example 4); conditions: 75 mg/l, 48 h 37° C.; for Growth: control C: ++
Excerpt: as §1

[3] = system: Burkholderia cepacia 7507032; experiment: Peptidase detection on Columbia medium (Example 4); conditions: 75 mg/l, 48 h 37° C.; for Growth: control C: ++
Excerpt: as §1

Candida albicans 0801025 [4] = experiment: Peptidase detection on Columbia medium (Example 4); conditions: 75 mg/l, 48 h 37° C.; for Growth: control C: ++
Excerpt: as §1

Candida glabrata 0408083 = experiment: Peptidase detection on Columbia medium (Example 4); conditions: 75 mg/l, 48 h 37° C.; for Growth: control C: +
Excerpt: as §1

[5] = system: Citrobacter freundii 0006197; experiment: Peptidase detection on Columbia medium (Example 4); conditions: 75 mg/l, 48 h 37° C.; for Growth: control C: ++
Excerpt: as §1

[6] = system: Enterobacter cloacae 0604040; experiment: Peptidase detection on Columbia medium (Example 4); conditions: 75 mg/l, 48 h 37° C.; for Growth: control C: ++
Excerpt: as §1

[7] = system: Enterococcus faecalis 0008192; experiment: Peptidase detection on Columbia medium (Example 4); conditions: 75 mg/l, 48 h 37° C.; for Growth: control C: ++
Excerpt: as §1

[8] = system: Enterococcus faecium 0610021; experiment: Peptidase detection on Columbia medium (Example 4); conditions: 75 mg/l, 48 h 37° C.; for Growth: control C: ++
Excerpt: as §1

Escherichia coli 0002005 = experiment: Peptidase detection on Columbia medium (Example 4); conditions: 75 mg/l, 48 h 37° C.; for Growth: control C: ++
Excerpt: as §1

[9] = system: Klebsiella pneumoniae 0008009; experiment: Peptidase detection on Columbia medium (Example 4); conditions: 75 mg/l, 48 h 37° C.; for Growth: control C: ++
Excerpt: as §1

[10] = system: Listeria monocytogenes 8812049; experiment: Peptidase detection on Columbia medium (Example 4); conditions: 75 mg/l, 48 h 37° C.; for Growth: control C: ++
Excerpt: as §1

MRSA 0303033 = experiment: Peptidase detection on Columbia medium (Example 4); conditions: 75 mg/l, 48 h 37° C.; for Growth: control C: ++
Excerpt: as §1

[11] = system: Morganella morganii 9207053; experiment: Peptidase detection on Columbia medium (Example 4); conditions: 75 mg/l, 48 h 37° C.; for Growth: control C: ++
Excerpt: as §1

[12] = system: Providencia rettgeri 0706064; experiment: Peptidase detection on Columbia medium (Example 4); conditions: 75 mg/l, 48 h 37° C.; for Growth: control C: ++
Excerpt: as §1

[13] = system: Pseudomonas aeruginosa 0001001; experiment: Peptidase detection on Columbia medium (Example 4); conditions: 75 mg/l, 48 h 37° C.; for Growth: control C: ++
Excerpt: as §1

[14] = system: Salmonella ser typhimurium 0801029; experiment: Peptidase detection on Columbia medium (Example 4); conditions: 75 mg/l, 48 h 37° C.; for Growth: control C: ++
Excerpt: as §1

[15] = system: Serratia marcescens 7303004; experiment: Peptidase detection on Columbia medium (Example 4); conditions: 75 mg/l, 48 h 37° C.; for Growth: control C: ++
Excerpt: as §1

[16] = system: Staphylococcus aureus 7811049; experiment: Peptidase detection on Columbia medium (Example 4); conditions: 75 mg/l, 48 h 37° C.; for Growth: control C: ++
Excerpt: as §1

[17] = system: Staphylococcus epidermidis 0203050; experiment: Peptidase detection on Columbia medium (Example 4); conditions: 75 mg/l, 48 h 37° C.; for Growth: control C: ++
Excerpt: as §1

[18] = system: Streptococcus pyogenes 9806380; experiment: Peptidase detection on Columbia medium (Example 4); conditions: 75 mg/l, 48 h 37° C.; for Growth: control C: ++
Excerpt: as §1

[19] = system: Yersinia enterocolitica 7605019; experiment: Peptidase detection on Columbia medium (Example 4); conditions: 75 mg/l, 48 h 37° C.; for Growth: control C: ++
Excerpt: as §1

Candida albicans 0801025 [20] = experiment: Peptidase detection on Columbia medium (Example 5); conditions: 75 mg/l, 48 h 37° C.
Protocol: (§2) After homogenization, the media were distributed into Petri dishes 55 mm in diameter. A medium acting as a growth control (Columbia) and denoted C was also poured.
(§3) Twenty-two strains of microorganisms were inoculated with a 10 μl calibrated loop according to the three-quadrant streaking method using bacterial suspensions at 0.5 McFarland.

[21] = system: Listeria monocytogenes 8812049; experiment: Peptidase detection on Columbia medium (Example 5); conditions: 75 mg/l, 48 h 37° C.
Protocol: as §2, §3

[22] = system: Pseudomonas aeruginosa 0001001; experiment: Peptidase detection on Columbia medium (Example 5); conditions: 75 mg/l, 48 h 37° C.
Protocol: as §2, §3

[23] = system: Staphylococcus epidermidis 0203050; experiment: Peptidase detection on Columbia medium (Example 5); conditions: 75 mg/l, 48 h 37° C.
Protocol: as §2, §3

[24] = system: Enterobacter sakazakii 05 01 020; experiment: pH variation detection on modified chromID Coli medium (Example 6); conditions: 50 mg/l, 24 h 37° C.
Protocol: (§4) The media were incubated for 24 hours at 37° C., then the spots formed were examined visually.

[25] = system: Pectobacterium atrosepticum 80 12 075; experiment: as above; conditions: 50 mg/l, 24 h 37° C.
Protocol: as §4

[26] = system: Pseudomonas aeruginosa 89 09 041; experiment: as above; conditions: 50 mg/l, 24 h 37° C.
Protocol: as §4

[27] = system: Staphylococcus epidermidis NCTC 11 047; experiment: Peptidase detection on Columbia medium (Example 2); parameters: key to Growth: NG: No growth; 0.5: weak growth; 1: moderate growth; 2: good growth; key to Fluo. / Color / Color post-acid.: —: no color; conditions: 40 mg in 400 ml Columbia; 24 h 37° C.
Protocol: The 6 media were distributed into Petri dishes 90 mm in diameter, in a proportion of 20 ml per dish.
Seventeen strains of microorganisms stemming from collections and belonging to various species of bacteria and yeasts are inoculated in spots of approximately 10 000 colony-forming units.
The media are incubated for 24 hours at 37° C., and then the colonies formed are examined visually, with or without the addition of acid and under a UV lamp at 365 nm.

Compound: C[C@H](N)C(=O)Nc1ccc(C=Cc2cc[n+](C)c3ccccc23)cc1.Cl.[Cl-] [L-alanyl-4-(4′-amidostyryl)-N-methylquinolinium (dichloride)]
- Color [1]: orange
- Coloration strength [1]: ++
- Growth [1]: ++
- Color [2]: −
- Coloration strength [2]: −
- Growth [2]: ++
- Color [3]: orange
- Coloration strength [3]: +
- Growth [3]: ++
- Coloration strength (Candida albicans 0801025 [4]): −
- Growth (Candida albicans 0801025 [4]): ++
- Coloration strength (Candida glabrata 0408083): −
- Growth (Candida glabrata 0408083): +
- Color [5]: orange
- Coloration strength [5]: +
- Growth [5]: ++
- Color [6]: orange
- Coloration strength [6]: ++
- Growth [6]: ++
- Color [7]: orange
- Coloration strength [7]: +
- Growth [7]: ++
- Color [8]: −
- Coloration strength [8]: −
- Growth [8]: ++
- Color (Escherichia coli 0002005): orange
- Coloration strength (Escherichia coli 0002005): ++
- Growth (Escherichia coli 0002005): ++
- Color [9]: orange
- Coloration strength [9]: ++
- Growth [9]: ++
- Color [10]: orange
- Coloration strength [10]: ++
- Growth [10]: ++
- Color (MRSA 0303033): orange
- Coloration strength (MRSA 0303033): +
- Growth (MRSA 0303033): ++
- Color [11]: orange
- Coloration strength [11]: ++
- Growth [11]: ++
- Color [12]: orange
- Coloration strength [12]: +
- Growth [12]: ++
- Color [13]: orange
- Coloration strength [13]: ++
- Growth [13]: ++
- Color [14]: orange
- Coloration strength [14]: +
- Growth [14]: ++
- Color [15]: orange
- Coloration strength [15]: ++
- Growth [15]: ++
- Coloration strength [16]: +
- Growth [16]: ++
- Color [17]: orange
- Coloration strength [17]: ++
- Growth [17]: ++
- Color [18]: orange
- Coloration strength [18]: +
- Growth [18]: ++
- Color [19]: orange
- Coloration strength [19]: ++
- Growth [19]: ++
- Color (Candida albicans 0801025 [20]): −
- Coloration strength (Candida albicans 0801025 [20]): −
- Growth (Candida albicans 0801025 [20]; control C: ++): ++
- Color [21]: orange
- Coloration strength [21]: ++
- Growth ([21]; control C: +): +
- Color [22]: orange
- Coloration strength [22]: ++
- Growth ([22]; control C: ++): ++
- Color [23]: orange
- Coloration strength [23]: +
- Growth ([23]; control C: ++): ++

Compound: Nc1ccc(C=Cc2ccnc3ccccc23)cc1
- Coloration strength [24]: −
- Growth ([24]; control C: ++): ++
- Coloration strength [25]: −
- Growth ([25]; control C: −): −
- Coloration strength [26]: −
- Growth ([26]; control C: ++): +

Compound: C[C@H](N)C(=O)N[C@@H](C)C(=O)N[C@@H](C)C(=O)Nc1ccc(C=Cc2cc[n+](C)c3ccccc23)cc1.Cl.[Cl-] [Tri-Ala-ASQM^+, L-alanyl-L-alanyl-L-alanyl-4-(4′-amidostyryl)-N-methylquinolinium (dichloride)]
- Color [27]: —
- Growth [27]: 2
- Color [1]: orange
- Coloration strength [1]: ++
- Growth [1]: ++
- Coloration strength [2]: −
- Growth [2]: ++
- Color [3]: orange
- Coloration strength [3]: +
- Growth [3]: ++
- Growth (Candida albicans 0801025 [4]): +
- Growth (Candida glabrata 0408083): −
- Color [5]: orange
- Coloration strength [5]: +
- Growth [5]: ++
- Color [6]: orange
- Coloration strength [6]: ++
- Growth [6]: ++
- Color [7]: orange
- Coloration strength [7]: +
- Growth [7]: ++
- Coloration strength [8]: −
- Growth [8]: ++
- Color (Escherichia coli 0002005): orange
- Coloration strength (Escherichia coli 0002005): ++
- Growth (Escherichia coli 0002005): ++
- Color [9]: orange
- Coloration strength [9]: ++
- Growth [9]: ++
- Color [10]: orange
- Coloration strength [10]: ++
- Growth [10]: ++
- Color (MRSA 0303033): orange
- Coloration strength (MRSA 0303033): +
- Growth (MRSA 0303033): ++
- Color [11]: orange
- Coloration strength [11]: ++
- Growth [11]: ++
- Color [12]: orange
- Coloration strength [12]: +
- Growth [12]: ++
- Color [13]: orange
- Coloration strength [13]: ++
- Growth [13]: ++
- Color [14]: orange
- Coloration strength [14]: +
- Growth [14]: ++
- Color [15]: orange
- Coloration strength [15]: ++
- Growth [15]: ++
- Coloration strength [16]: +
- Growth [16]: ++
- Color [17]: orange
- Coloration strength [17]: ++
- Growth [17]: ++
- Color [18]: orange
- Coloration strength [18]: +
- Growth [18]: ++
- Color [19]: orange
- Coloration strength [19]: ++
- Growth [19]: ++
